Test results published in US20180318355A1, “METHODS AND COMPOSITIONS FOR IMPROVED TISSUE REGENERATION BY SUPPRESION OF INTERFERIN-GAMMA AND TUMOR NECROSIS FACTOR-ALPHA” (Alfred E. Mann Institute for Biomedical Eng. at the …, priority 2011, published 2018).
“Also recorded” adds a separate entry of the source. Where a SMILES comes first, the peptide text is derived from it. The star is where a group is joined. Cbz = O=C(OCc1ccccc1)*; CH2F = FC*

Assays:
[1] = test system: Fas, caspase 8, caspase 3; assay: Western blot of Fas, cleaved caspase 8 and cleaved caspase 3 in BMMSCs; type: cell-based, mouse; conditions: for cleaved caspase 3 in IFN-γ/TNF-α-treated BMMSCs / cleaved caspase 8 in IFN-γ/TNF-α-treated BMMSCs: siRNA or inhibitor treatment before IFN-γ/TNF-α
Method: Western blot analysis. Total protein was extracted using M-PER mammalian protein extraction reagent (Thermo, Rockford, Ill.). Nuclear protein was obtained using NE-PER nuclear and cytoplasmic extraction reagent (Thermo). Protein was applied and separated on 4-12% NuPAGE gel (Invitrogen) and transferred to Immobilon™-P membranes (Millipore). The membranes were blocked with 5% non-fat dry milk and 0.1% tween-20 for 1 hour, followed by incubation with the primary antibodies (1:20¬1000 dilution) at 4° C. overnight. Horseradish peroxidase-conjugated IgG (Santa Cruz Biosciences; 1:10,000) was used to treat the membranes for 1 hour, and enhanced with a SuperSignal® West Pico Chemiluminescent Substrate (Thermo). The bands were detected on BIOMAX MR films (Kodak, Rochester, N.Y.). Each membrane was also stripped using a stripping buffer (Thermo) and reprobed with anti-β-actin antibody to quantify the amount of loaded protein.
(§1) SiRNAs for Fas, TNFR2, IKK, FLIP and XIAP were used to treat the BMMSCs according to the manufacture's instruction, and IFN-γ and TNF-α were added for 24 hrs. Inhibitors for internalization (Latrunculin A, 0.2 μM), pan caspase (Z-VAD (OMe)-FMK, 50 μM), caspase 8 ([…], 20 μM) and caspase 3 (Z-DEVD-FMK, 20 µM) were used to treat the BMMSCs at 4 hrs before IFN-γ and TNF-α were added. Cell apoptosis were analysis by immunofluorescence staining and FACS^Calibur (Annexin V-PE apoptosis detection kit I) and Western blot analysis for caspase 8, cleaved caspase 8, caspase 3 and cleaved caspase 3.

Fas = Fas internalization (immunocytochemical staining); type: cell-based, mouse; conditions: caspase inhibitor in IFN-γ/TNF-α-treated BMMSCs vs control group
Method: as §1
Fas internalization. P1 BMMSCs were seeded to 2-well chamber slide. IFN-γ (50 ng/ml) was added to pre-treat BMMSCs for 24 hours, and then TNF-α (20 ng/ml) was added. At the 0.5, 1, 2, 4 hours after TNF-α was added, the cells were washed by PBS twice, and fixed with 4% PFA for 15 min. After treated by Triton-X 15 min, the cells were blocked with normal serum matched to secondary antibodies, incubated with 1 μg/ml anti-Fas (Santa Cruz) antibody at room temperature for 2 hours, treated with Rhodamin-conjugated secondary antibodies (1:200, Jackson ImmunoResearch). Then the cells were incubated with ([…] (1:40; Invitrogen) at room temperature for 20 min, and were mounted by vectashield mounting medium DAPI (Vector Laboratories).

BMMSCs [2] = assay: siRNA and inhibitors: IFN-γ/TNF-α-induced BMMSC death; type: cell-based, mouse; conditions: siRNA or inhibitor treatment before IFN-γ/TNF-α, toluidine blue staining
Method: as §1

[3] = test system: BMMSC-mediated bone formation; assay: BMMSC-mediated bone formation, subcutaneous BMMSC/HA/TCP implantation; type: in vivo; conditions: 200 ng cytokine in hydrogel co-implanted with BMMSCs/HA/TCP, immunocompromised mice, 8 weeks post implantation
Method: BMMSC-mediated bone formation. Approximately 4.0×10^6 BMMSCs were mixed with hydroxyapatite/tricalcium phosphate (HA/TCP) ceramic particles (40 mg, Zimmer Inc., Warsaw, Ind.) as a carrier and subcutaneously implanted into the dorsal surface of 8-10 weeks old immunocompromised mice or C57BL/6J mice. At eight weeks post-implantation, the implants were harvested, fixed in 4% paraformaldehyde and then decalcified with 5% EDTA (pH 7.4), followed by paraffin embedding. The 6 μm paraffin sections were stained with hematoxylin and eosin (H&E) and analyzed by an NIH Image J. Five fields were selected and newly formed mineralized tissue area in each field was calculated and shown as a percentage to total tissue area.
Cytokines in BMMSC-mediated bone formation. Approximately 4.0×10^6 of littermate-derived or autologous BMMSCs were mixed with HA/TCP ceramic powders (40 mg, Zimmer Inc.), and hydrogel (Glycosan Biosysterms, Salt Lake City, Utah) with 200 ng IFN-γ, TNF-α, IL-4, IL-6 or IL-17A were covered on the surface of the implants as a slow released system. At eight weeks post-implantation, the implants were harvested and newly formed mineralized tissue areas were analyzed. […]
BMMSC-mediated bone formation. Approximately 4.0×10^6 of littermate-derived or autologous BMMSCs were mixed with hydroxyapatite/tricalcium phosphate (HA/TCP) ceramic particles (40 mg, Zimmer Inc., Warsaw, Ind.) as a carrier and subcutaneously implanted into the dorsal surface of 8-10 weeks old immunocompromised mice or C57BL6 mice. When aspirin was used, BMMSCs were treated with 50 μg/ml aspirin for 2 days and mixed with HA/TCP particles to be subcutaneously implanted into immunocompromised mice. When IFN-γ and TNF-α were used in the subcutaneous implants, 200 ng IFN-γ, TNF-α or/and 100 μg aspirin mixed with 250 μl hydrogel as a slow released system and subcutaneously co-implanted to the dorsal surface of 8-10 weeks old immunocompromised mice.
At eight weeks post-implantation, the implants were harvested, fixed in 4% paraformaldehyde and then decalcified with 5% EDTA (pH 7.4), followed by paraffin embedding. The 6 μm paraffin sections were stained with hematoxylin and eosin (H&E) and analyzed by an NIH Image J. Five fields were selected and newly formed mineralized tissue area in each field was calculated and shown as a percentage to total tissue area.

GFP^+ BMMSCs = assay: Cell survival assay, subcutaneous GFP+ BMMSC implantation; type: in vivo, mice; conditions: TNF-α 50 ng/ml, immunocompromised mice, 30 days post implantation, vs untreated control
Method: Cell survival assay. 4×10^6 BMMSCs isolated from C57BL/6-Tg (CAG-EGFP)1Osb/J mice were combined with different concentrations of IFN-γ (0, 20, 50, 100, 200 ng/ml) and TNF-α (0, 20, 50, 100, 200 ng/ml) and subcutaneously transplanted into immunocompromised mice, hydrogel was used as a slowly released carrier. Thirty days after translation, the implants were harvested and digested in a solution of 3 mg/mL collagenase type I (Worthington Biochem) and 4 mg/mL dispase (Roche) for 1 h at 37° C. Single-cell suspensions were obtained by passing the cells through a 70 μm strainer (BD Bioscience). 1.0-1.5×10^6 BMMSCs were seeded into 100 mm culture dishes (Corning) and incubated for 48 hours under 37° C. at 5% CO2 condition. To eliminate the non-adherent cells, the cultures were washed with PBS twice. The attached cells were cultured for 10 days with alpha minimum essential medium (α-MEM, Invitrogen) supplemented with 20% FBS, 2 mM L-glutamine (Invitrogen), 55 μM 2-mercaptoethanol (Invitrogen), 100 U/ml penicillin, and 100 μg/ml streptomycin (Invitrogen). The numbers of GFP positive cells were counted under fluorescent microscopy.

BMMSCs [4] = assay: Cell apoptosis and cell survival assay in vitro (toluidine blue, Annexin V); conditions: TNF-α 0, 5, 50, 100 ng/ml, flow cytometric analysis
Method: Cell apoptosis and cell survival assay. 0.5×10^6 BMMSCs were seeded to 6-well culture plate and co-cultured with different doses of recombined IL-4, IL-6, IL-17A, TGF-β1, TNF-α and IFN-γ (0, 10, 20, 50, 100, 200 ng/ml) for 3 days. To measure the cell viability, the total cells were analyzed by using a cell counting kit-8 (Dojindo Molecular Technoloies, Gaithersburg, Md.) according to the manufacture's instruction. And the culture plates with cells were stained with 2% toluidine blue O and 2% paraformaldehyde (Sigma-Aldrich Corporate, St. Louis, Mo.).
For cell apoptosis analysis, the BMMSCs were stained by Annexin V-PE apoptosis detection kit I (BD Bioscience) following manufacture's protocol, and analyzed by FACS^Calibur (BD Bioscience).
IFN-γ and TNF-α synergism for apoptosis. For cell apoptosis staining, the 1×10^4 BMMSCs were seeded onto two chambers slide, IFN-γ (50 ng/ml) and TNF-α (20 ng/ml) were used to treat the BMMSCs for 24 hrs either separately or combined, Annexin V-PE apoptosis detection kit I (BD Bioscience) was used to stain the BMMSCs following manufacture's protocol, and analyzed on microscopy and FACS^Calibur (BD Bioscience). Cell viability was analyzed by using cell counting kit, and culture plates were stained with 2% toluidine blue O and 2% paraformaldehyde.
IFN-γ and TNF-α synergism for apoptosis. 0.5×10^6 BMMSCs were seeded to 6-well culture plate and co-cultured with different doses of TNF-α (0, 5, 50, 100 ng/ml) with or without IFN-γ (50 ng/ml) for I day. Then, the BMMSCs were stained by Annexin V-PE apoptosis detection kit I (BD Bioscience) following manufacture's protocol, and analyzed by FACS^Calibur (BD Bioscience).

[5] = wild type BMMSCs, IFN-γ 50 ng/ml, TNF-α 20 ng/ml, alone or co-stimulated

Compound | cleaved caspase 3 in IFN-γ/TNF-α-treated BMMSCs [1] | cleaved caspase 8 in IFN-γ/TNF-α-treated BMMSCs [1] | number of BMMSCs with Fas internalization (Fas) | IFN-γ/TNF-α-induced BMMSC death (BMMSCs [2]) | new bone formation in BMMSC implants [3] | Fas expression [1, 5] | activation of caspase 3 and caspase 8 [1, 5] | numbers of surviving BMMSCs in implants (GFP^+ BMMSCs) | BMMSC apoptosis (BMMSCs [4])
CC[C@H](C)[C@H](NC(=O)OCc1ccccc1)C(=O)N[C@@H](CCC(=O)OC)C(=O)N[C@H](C(=O)N[C@@H](CC(=O)OC)C(=O)CF)[C@@H](C)O [Caspase 8 inhibitor, 2-IETD-FMK] (Cbz-IE(OMe)TD(OMe)-CH2F) | reduce levels | reduce levels | reduced number of Fas internalization | rescuing INF-γ/TNF-α-induced cell death | – | – | – | – | –
COC(=O)CC[C@H](NC(=O)[C@H](CC(=O)OC)NC(=O)OCc1ccccc1)C(=O)N[C@H](C(=O)N[C@@H](CC(=O)OC)C(=O)CF)C(C)C [Caspase 3 inhibitor, Z-DEVD-FMK] | partially inhibition | no inhibitive effect | reduced number of Fas internalization | rescuing IFN-γ/TNF-α-induced BMMSC death | – | – | – | – | –
TNF-α | – | – | – | – | very limited bone formation; also recorded: inhibited subcutaneous bone formation; also recorded: reduced BMMSC-mediated bone formation; also recorded: significantly reduced bone formation | slightly increase | slightly increase | marked reduction in the numbers of survived BMMSCs; also recorded: significant reduction in the numbers of surviving cells | dose-dependent BMMSC apoptosis
